# Measured values published in patent US10913727B2, “Modulators of the integrated stress pathway” (Calico Life Sciences LLC, priority 2016, dated 2021).
# Test system: HEK293T cells carrying the ATF4 luciferase reporter
# Test: ATF4-Luc assay, in vitro model of Vanishing Cell White Matter Disease (VWMD)
# Type: cell-based
# Conditions: Homo sapiens, HEK-293T, 1 μg/mL tunicamycin, 7 hours, One Glo luminescence
# In short: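 Reporter cells were stably generated by retroviral transduction and puromycin selection, then seeded at 30,000 cells/well. Next day, cells received 1 μg/mL tunicamycin with 200 nM test compound for 7 h, and luciferase luminescence was read with a one-step reagent. Values reported as EC50.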
row,Structure (SMILES),EC50
1,"Cn1cnc2cc(C(=O)NC34CC(NC(=O)COc5ccc(Cl)c(F)c5)(C3)C4)ccc21 [Compound 767, N-{3-[2-(4-chloro-3-fluorophenoxy)acetamido]bicyclo[1.1.1]pentan-1-yl}-1-methyl-1H-benzimidazole-5-carboxamide]",> 2 µM
2,"O=C(COc1ccc(Cl)c(Cl)c1)NC12CC(NC(=O)c3cc(CO)ccn3)(C1)C2 [Compound 166, N-{3-[2-(3,4-dichlorophenoxy)acetamido]bicyclo[1.1.1]pentan-1-yl}-4-(hydroxymethyl)pyridine-2-carboxamide]",0.05 to 0.25 µM
3,"Cc1cc2c(NC34CC(NC(=O)COc5ccc(OC(F)(F)F)c(F)c5)(C3)C4)nccn2n1 [Compound 496, 2-[3-fluoro-4-(trifluoromethoxy)phenoxy]-N-{3-[(2-methylpyrazolo[1,5-a]pyrazin-4-yl)amino]bicyclo[1.1.1]pentan-1-yl}acetamide]",0.05 to 0.25 µM
4,"Cc1nn(C)c(C(=O)NC23CCC(NC(=O)COc4ccc5c(c4)OC(F)(F)O5)(CC2)[C@@H](O)C3)c1F [Compound 637, N-[(3S)-4-{2-[(2,2-difluoro-2H-1,3-benzodioxol-5-yl)oxy]acetamido}-3-hydroxybicyclo[2.2.2]octan-1-yl]-4-fluoro-1,3-dimethyl-1H-pyrazole-5-carboxamide]",0.25 to 1 µM
5,"O=C(COc1ccc(Cl)c(F)c1)NC12CCC(NC(=O)c3cccnc3)(C1)C2 [Compound 477, N-{4-[2-(4-chloro-3-fluorophenoxy)acetamido]bicyclo[2.1.1]hexan-1-yl}pyridine-3-carboxamide]",1 to 2 µM
6,"O=C(COc1ccc(Cl)c(F)c1)NC12CC(Nc3cncc(-c4ccc(Cl)cc4)n3)(C1)C2 [Compound 395, 2-(4-chloro-3-fluorophenoxy)-N-(3-{[6-(4-chlorophenyl)pyrazin-2-yl]amino}bicyclo[1.1.1]pentan-1-yl)acetamide]",> 2 µM
7,"CCc1ccc(C(=O)NC23CC(NC(=O)COc4ccc(Cl)c(F)c4)(C2)C3)cc1 [Compound 761, N-{3-[2-(4-chloro-3-fluorophenoxy)acetamido]bicyclo[1.1.1]pentan-1-yl}-4-ethylbenzamide]",> 2 µM
8,"CS(=O)(=O)Nc1cccc(C(=O)NC23CC(NC(=O)COc4ccc(Cl)c(F)c4)(C2)C3)c1 [Compound 851, N-{3-[2-(4-chloro-3-fluorophenoxy)acetamido]bicyclo[1.1.1]pentan-1-yl}-3-[(methanesulfonyl)amino]benzamide]",0.25 to 1 µM
9,"CC(=O)NCc1ccnc(C(=O)NC23CC(NC(=O)COc4ccc(Cl)c(F)c4)(C2)C3)c1 [Compound 194, 4-(acetamidomethyl)-N-{3-[2-(4-chloro-3-fluorophenoxy)acetamido]bicyclo[1.1.1]pentan-1-yl}pyridine-2-carboxamide]",0.05 to 0.25 µM
10,"Cc1cc(C(=O)NC23CCC(NC(=O)COc4ccc(Cl)c(F)c4)(CC2)C[C@@H]3O)n(C)n1 [Compound 506, N-{(2S)-4-[2-(4-chloro-3-fluorophenoxy)acetamido]-2-hydroxybicyclo[2.2.2]octan-1-yl}-1,3-dimethyl-1H-pyrazole-5-carboxamide]",0.05 to 0.25 µM
11,"O=C(COc1ccc(Cl)c(F)c1)NC12CCC(NC(=O)c3cc(N4CCOCC4)ccn3)(CC1)CC2O (stereo not drawn) [Compound 935, N-{4-[2-(4-chloro-3-fluorophenoxy)acetamido]-3-hydroxybicyclo[2.2.2]octan-1-yl}-4-(morpholin-4-yl)pyridine-2-carboxamide]",> 2 µM
12,"Cc1cncc(C(=O)NC23CC(NC(=O)COc4ccc(Cl)c(Cl)c4)(C2)C3)c1 [Compound 645, N-{3-[2-(3,4-dichlorophenoxy)acetamido]bicyclo[1.1.1]pentan-1-yl}-5-methylpyridine-3-carboxamide]",0.05 to 0.25 µM
13,"Cc1cnc(C(=O)NC23CCC(NC(=O)COc4ccc(Cl)c(F)c4)(C2)C3)s1 [Compound 616, N-{4-[2-(4-chloro-3-fluorophenoxy)acetamido]bicyclo[2.1.1]hexan-1-yl}-5-methyl-1,3-thiazole-2-carboxamide]",> 2 µM
14,"O=C(COc1ccc(Cl)c(F)c1)NC12CC(NC(=O)c3ccc(Cn4cncn4)cc3)(C1)C2 [Compound 849, N-{3-[2-(4-chloro-3-fluorophenoxy)acetamido]bicyclo[1.1.1]pentan-1-yl}-4-[(1H-1,2,4-triazol-1-yl)methyl]benzamide]",1 to 2 µM
15,"O=C(COc1ccc(Cl)c(F)c1)NC12CC(NC(=O)c3ccccc3)(C1)C2 [Compound 198, N-{3-[2-(4-chloro-3-fluorophenoxy)acetamido]bicyclo[1.1.1]pentan-1-yl}benzamide]",0.05 to 0.25 µM
16,"O=C(COc1ccc(Cl)c(F)c1)NC12CCC(NC(=O)c3ccc(OCC(F)(F)F)nc3)(CC1)CC2O (stereo not drawn) [Compound 579, N-{4-[2-(4-chloro-3-fluorophenoxy)acetamido]-3-hydroxybicyclo[2.2.2]octan-1-yl}-6-(2,2,2-trifluoroethoxy)pyridine-3-carboxamide]",0.05 to 0.25 µM
17,"O=C(COc1ccc(Cl)c(F)c1)NC12CC(NC(=O)c3ccc(OC(F)F)cn3)(C1)C2 [Compound 152, N-{3-[2-(4-chloro-3-fluorophenoxy)acetamido]bicyclo[1.1.1]pentan-1-yl}-5-(difluoromethoxy)pyridine-2-carboxamide]",0.05 to 0.25 µM

row,Structure (SMILES),EC50
1,"CCc1noc(C(=O)NC23CCC(NC(=O)COc4ccc(Cl)c(F)c4)(CC2)C(O)C3)n1 (stereo not drawn) [Compound 567, N-{4-[2-(4-chloro-3-fluorophenoxy)acetamido]-3-hydroxybicyclo[2.2.2]octan-1-yl}-3-ethyl-1,2,4-oxadiazole-5-carboxamide]",0.05 to 0.25 µM
2,"Cc1nnc2c(NC34CC(NC(=O)COc5ccc(Cl)c(F)c5)(C3)C4)nccn12 [Compound 465, 2-(4-chloro-3-fluorophenoxy)-N-{3-[(3-methyl[1,2,4]triazolo[4,3-a]pyrazin-8-yl)amino]bicyclo[1.1.1]pentan-1-yl}acetamide]",> 2 µM
3,"Cc1ccc(C(=O)NC23CCC(NC(=O)COc4ccc(Cl)c(F)c4)(CC2)C(O)C3)o1 (stereo not drawn) [Compound 624, N-{4-[2-(4-chloro-3-fluorophenoxy)acetamido]-3-hydroxybicyclo[2.2.2]octan-1-yl}-5-methylfuran-2-carboxamide]",0.05 to 0.25 µM
4,"Cn1cnc2noc(C(=O)NC34CCC(NC(=O)COc5ccc(Cl)c(F)c5)(CC3)C(O)C4)c21 (stereo not drawn) [Compound 412, N-{4-[2-(4-chloro-3-fluorophenoxy)acetamido]-3-hydroxybicyclo[2.2.2]octan-1-yl}-4-methyl-4H-imidazo[4,5-c][1,2]oxazole-3-carboxamide]",> 2 µM
5,"Cc1cnc(C(=O)NC23CC(NC(=O)COc4ccc(Cl)c(F)c4)(C2)C3)o1 [Compound 478, N-{3-[2-(4-chloro-3-fluorophenoxy)acetamido]bicyclo[1.1.1]pentan-1-yl}-5-methyl-1,3-oxazole-2-carboxamide]",0.05 to 0.25 µM
6,"O=C(COc1ccc(Cl)c(F)c1)NC12CCC(NC(=O)c3ccc(OC(F)(F)F)cc3)(CC1)C(O)C2 (stereo not drawn) [Compound 225, N-{4-[2-(4-chloro-3-fluorophenoxy)acetamido]-2-hydroxybicyclo[2.2.2]octan-1-yl}-4-(trifluoromethoxy)benzamide]",0.05 to 0.25 µM
7,"Cc1nc2ccc(C(=O)NC34CC(NC(=O)COc5ccc(Cl)c(F)c5)(C3)C4)cc2o1 [Compound 341, N-{3-[2-(4-chloro-3-fluorophenoxy)acetamido]bicyclo[1.1.1]pentan-1-yl}-2-methyl-1,3-benzoxazole-6-carboxamide]",> 2 µM
8,"Cc1nc(C(=O)NC23CCC(NC(=O)COc4ccc(Cl)c(F)c4)(CC2)C(O)C3)co1 (stereo not drawn) [Compound 467, N-{4-[2-(4-chloro-3-fluorophenoxy)acetamido]-3-hydroxybicyclo[2.2.2]octan-1-yl}-2-methyl-1,3-oxazole-4-carboxamide]",0.05 to 0.25 µM
9,"Cc1ccncc1C(=O)NC12CC(NC(=O)COc3ccc(Cl)c(Cl)c3)(C1)C2 [Compound 736, N-{3-[2-(3,4-dichlorophenoxy)acetamido]bicyclo[1.1.1]pentan-1-yl}-4-methylpyridine-3-carboxamide]",> 2 µM
10,"O=C(COc1ccc(Cl)c(F)c1)NC12CC(Nc3cnc(C(F)(F)F)nc3)(C1)C2 [Compound 755, 2-(4-chloro-3-fluorophenoxy)-N-(3-{[2-(trifluoromethyl)pyrimidin-5-yl]amino}bicyclo[1.1.1]pentan-1-yl)acetamide]",0.25 to 1 µM
11,"O=C(COc1ccc2c(c1)OC(F)(F)O2)NC12CC(NC(=O)c3cnc(C(F)F)cn3)(C1)C2 [Compound 376, N-(3-{2-[(2,2-difluoro-2H-1,3-benzodioxol-5-yl)oxy]acetamido}bicyclo[1.1.1]pentan-1-yl)-5-(difluoromethyl)pyrazine-2-carboxamide]",0.05 to 0.25 µM
12,"Cc1cc(C(=O)NC23CC(NC(=O)COc4ccc(Cl)c(F)c4)(C2)C3)no1 [Compound 273, N-{3-[2-(4-chloro-3-fluorophenoxy)acetamido]bicyclo[1.1.1]pentan-1-yl}-5-methyl-1,2-oxazole-3-carboxamide]",0.25 to 1 µM
13,"O=C(COc1ccc(Cl)c(F)c1)NC12CC(NC(=O)c3ccc(-n4cncn4)cc3)(C1)C2 [Compound 783, N-{3-[2-(4-chloro-3-fluorophenoxy)acetamido]bicyclo[1.1.1]pentan-1-yl}-4-(1H-1,2,4-triazol-1-yl)benzamide]",> 2 µM
14,"O=C(COc1ccc(Cl)c(F)c1)NC12CCC(NC(=O)c3ccno3)(CC1)CC2O (stereo not drawn) [Compound 628, N-{4-[2-(4-chloro-3-fluorophenoxy)acetamido]-3-hydroxybicyclo[2.2.2]octan-1-yl}-1,2-oxazole-5-carboxamide]",0.25 to 1 µM
15,"Cc1ccnc(C(=O)NC23CC(NC(=O)COc4ccc(Cl)c(F)c4)(C2)C3)c1 [Compound 525, N-{3-[2-(4-chloro-3-fluorophenoxy)acetamido]bicyclo[1.1.1]pentan-1-yl}-4-methylpyridine-2-carboxamide]",0.25 to 1 µM
16,"O=C(COc1ccc(Cl)c(F)c1)NC12CC(NC(=O)c3ccc(OC(F)(F)F)cc3)(C1)C2 [Compound 321, N-{3-[2-(4-chloro-3-fluorophenoxy)acetamido]bicyclo[1.1.1]pentan-1-yl}-4-(trifluoromethoxy)benzamide]",0.05 to 0.25 µM
